The values that follow come from paper PMC4085599, “Preliminary Studies on Validation of Calu-3 Cell Line as a Model for Screening Respiratory Mucosa Irritation and Toxicity” (Pharmaceutics, 2014).

Where two headings read alike, the source gives them in different places.

Details of data set [1]: method as in earlier work. To be noted: ref [19],[20]; cited from earlier work.
Data set [2] deals with Arion lusitanicus. Details: method as in Adriaens and Remon (2002) [12]. To be noted: slug mucosal irritation model; ref Adriaens and Remon (2002) [12]; cited from earlier work.
Data set [3] is described as follows: MTT cell viability assay on Calu-3 cells after exposure to test solutions. The format is cell-based, Human. To be noted: human, 60 min incubation, MTT, relative to negative control, n = 4, read-out: Calu-3 %Viability ± SD; for viability at 60 min, 1 % w/v: 1.0% w/v test solution. On the procedure: (§1) The Calu-3 cells were used at passages 5–10. They were cultured in 96-well plates (Fisher Scientific) in 1:1 DMEM/F-12 supplemented with 10% FBS, 1% Glutamax®, 100 U/mL penicillin, and […] streptomycin using our previously described method. The tissue culture medium was changed every two days.
(§2) Irritant selection, concentration and exposure time were based on mucociliary clearance time and published work in which the compounds were used. […] In order to provide a basis for comparison with other published work using other models three concentrations of the chemicals were selected (0.2%, 0.4% and 1.0%). To initiate the experiments, the cells were washed 3 times with PBS and allowed to equilibrate in 100 µL of buffered DMEM/F-12 (without phenol red) for 30 min. […] Cells were observed under the microscope for detachment before discarding the test solutions. Subsequently, the effect of the test compounds on the cells was determined using MTT assay.
(§3) Cell viability screening was based on cellular mitochondrial dehydrogenase (MDH) activity, measured by MTT reduction and conversion to blue formazan salt that was quantified after extraction from cells. MTT was used for predicting respiratory irritation because several studies have shown correlation between reduction in cell viability, decrease in epithelial electrical resistance and increases in biomarkers such as IL-1α and IL-1β. Cells grown in 96-well plates were used for the studies. After exposure of the cells to the solution of test compounds, the solutions were discarded and 100 μL of MTT (5.0 mg/mL) added to each well and incubated for 3 h at 37 °C. Subsequently, the MTT solution was removed and replaced with 100 μL isopropyl alcohol. The plates were then wrapped in aluminium foil and incubated for 2 h at 37 °C in order to extract formazan from the cells. Extracted formazan salt was quantified spectrophotometrically at 570 nm using Synergy™ HT multimode microplate reader (BioTek Instruments Incorporated). The absorbance of isopropyl alcohol (100 μL) was used as blank. The reduction of cell viability in treated cells was compared to negative control (cells incubated with DMEM/F-12) and expressed as a percentage.
(§4) Data acceptance criteria, calculation steps, interpretation and prediction model was done using the ECVAM Skin irritation Validation Study as contained in Standard Operating Procedure of Validation of the EpiSkin™ Test Method ^15 min–42 h for the prediction of acute skin irritation of chemicals. This was chosen because the model, as well as the cell viability assay method (MTT) has been accepted by intergovernmental agencies as being able to distinguish between irritants and non-irritants. However, we modified drug exposure time to reflect respiratory route of administration (15–60 min). […] Test compounds with mean relative viability values of 50% and below were considered irritant (I); those above 50% were considered non-irritant (NI) according to the ECVAM protocol.
A general note: Formazan colour is commonly taken as a measure of viable cells.

In data set [4] the test system is Calu-3 cells. The description is as above. To be noted: for Calu-3 model prediction (irritant if viability 50% and below) compared with European Union class: ECVAM protocol. The format is cell-based, Human. On the procedure: as §1, §2, §3, §4
For data set [5], the system named is eye. Details: method as in PMID 12140180. The following applies: ECETOC eye irritation data bank, ref [12], cited from earlier work.
Where [6] appears, read: 0.2% w/v test solution, 60 min exposure.
Setting [7] is: 1.0% w/v test solution, 60 min exposure.
[8] abbreviates: tick = compound belongs to this class.

`CCCCCCCCCCCCCCCC[n+]1ccccc1` [Cetylpyridinium bromide]: the “Log p Octanol–Water” value in data set [1] was 1.83. Besides, the “SMI model prediction compared with European Union class” value in data set [2] is “correct predictions”. Besides, the viability (as a rule, a read-out of living cells in per cent, often relative to untreated cells) at 60 min, 0.2 % w/v in data set [3] (Calu-3 cells, 0.2% w/v test solution) turned out to be 8.1 ± 1.1%. The values for the viability at 60 min, 1 % w/v in data set [3] (Calu-3 cells) and in data set [3] were 5.4 ± 0.6% and < 17%, respectively. The “Calu-3 model prediction (irritant if viability 50% and below) compared with European Union class” value in data set [4] (setting [6]) and in data set [4] (setting [7]) was “correctly predicted” each time. Also, the “European Union Class” value in data set [5] (as listed in Table 2) and in data set [5] (as listed in Table 3) was “R41” throughout. Besides, the “European Union Irritation Class: R41 Risk of Serious Damage to Eye” value in data set [5] (setting [8]) is on record as “√”.
With Triton X-100, the “Log p Octanol–Water” value in data set [1] is 4.15. In addition, the “SMI model prediction compared with European Union class” value in data set [2] is recorded as “over-predictions”. Also, the “Calu-3 model prediction (irritant if viability 50% and below) compared with European Union class” value in data set [4] (setting [6]) and in data set [4] (setting [7]) was “correctly predicted” throughout. Moreover, in data set [4] (0.2% w/v test solution, 60 min incubation, MTT, relative to negative control, n = 4), the “Calu-3 %Viability ± SD” value turned out to be 3.5 ± 0.5%. In addition, in data set [4] (0.2% w/v, 60 min exposure), the Calu-3 cells killed entry is recorded as “more than 90%”. Further, the “European Union Class” value in data set [5] (as listed in Table 2) and in data set [5] (as listed in Table 3) was “R36” each time. Also, the “European Union Irritation Class: R36 Irritating to Eye” value in data set [5] (setting [8]) is listed as “√”.
